# US20150126467A1, “USE OF ALGINATE OLIGOMERS TO ENHANCE THE EFFECTS OF ANTIFUNGAL AGENTS” (AlgiIPharma AS, priority 2011, published 2015)
# How the values were obtained:
# Assay type in all cases: cell-based
# [1] = system: Aspergillus flavus CCUG 28296; test: Robotic MIC assay, Aspergillus (Example 4); settings: A. flavus CCUG 23451, 48 hours, Mueller-Hinton broth
# Method: (§1) Aspergillus sp. was grown at 30° C. for 96 h on YM-agar. Spores and aerial mycelium was cut out from the agar, suspended in 1 ml YM-broth and dispersed with glass beads (1 mm) in a mini bead beater for 2 min. Glycerol was added to the suspension to 10% and frozen at −80° C.
# (§2) Each batch of frozen stock culture was then characterized in separate growth experiments using Mueller-Hinton broth to determine the minimum amount of inoculum giving satisfactory growth after 48 h under the conditions relevant for the MIC assay. This inoculation procedure is used in order to reduce day to day variation in bioassays.
# (§3) Robotic minimum inhibitory concentration (MIC) assay was performed as follows. OligoG CF-5/20 was dissolved in medium (Mueller-Hinton broth) to 1.25 times of the desired assay concentrations (2, 6 and 10%). […].
# (§4) Two-fold serial dilutions of antifungal agents were made in medium with different concentrations of OligoG CF-5/20, and the solutions were placed in four parallel wells in Nunc 384-well micro plates (30 μl per well in Nunc 242757 microplates). A group of 8 wells with no addition of antifungal agents for each OligoG CF-5/20 concentration was included on each micro plate as growth reference. Each well in the 384-well assay plates was added 7.5 μl of the MH medium inoculated with frozen stock culture of the relevant strains.
# (§5) The microplates were placed in plastic bags and incubated without shaking at 34° C. The optical density at 600 nm in the microwells was measured after approximately 24 and 48 hours of incubation. […]
# [2] = system: Aspergillus niger CCUG 18919; test: Robotic MIC assay, Aspergillus (Example 4); settings: A. niger CCUG 18919, 48 hours, Mueller-Hinton broth
# Method: as §1, §2, §3, §4, §5
# [3] = system: Aspergillus fumigatus CCUG 17460; test: Robotic MIC assay, Aspergillus (Example 4); settings: A. fumigatus CCUG 17460, 48 hours, Mueller-Hinton broth
# Method: as §1, §2, §3, §4, §5
# [4] = system: Cryptococcus neoformans CCUG 23451; test: Robotic MIC assay, Cryptococcus neoformans (Example 6)
# Method: Cryptococcus sp. was grown at 30° C. for 96 h on YM-agar. Spores and aerial mycelium was cut out from the agar, suspended in 1 ml YM-broth and dispersed with glass beads (1 mm) in a mini bead beater for 2 min. The suspension was added glycerol to 10% and frozen at −80° C. Each batch of frozen stock culture was then characterized in separate growth experiments using Mueller-Hinton and RPMI to determine the minimum amount of inoculum giving satisfactory growth after 48 h under the conditions relevant for the MIC assay. This inoculum procedure is used in order to reduce day to day variation in bioassays.
# Robotic minimum inhibitory concentration (MIC) assay was performed as follows. OligoG CF-5/20 was dissolved in medium (Mueller-Hinton, RPMI with 2% glucose, Sabouraud or YM) to 1.25 times of the desired assay concentrations (2, 6 and 10%). […].
# as §4, with “the” for “the MH”, “innoculated” for “inoculated”
# The microplates were placed in plastic bags and incubated without shaking at 34° C. The optical density at 600 nm in the microwells was measured after certain time points from 24 h to 96 h of incubation. […]
smiles,measurement,setting,value
"C[C@@H]1[C@H](O)[C@@H](C)/C=C/C=C/CC/C=C/C=C/C=C/C=C/C(O[C@H]2O[C@H](C)[C@@H](O)[C@H](N)[C@@H]2O)CC2O[C@](O)(CC(O)C(O)CCC(O)CC(O)CC(O)CC(=O)O[C@H]1C)CC(O)C2C(=O)O (stereo partly shown) [Nystatin, nystatin]",Minimum Inhibitory Concentration (MIC),[1]; 0% OligoG,8 µg/mL
same,Minimum Inhibitory Concentration (MIC),[1]; 2% OligoG,8 µg/mL
same,Minimum Inhibitory Concentration (MIC),[1]; 6% OligoG,4 µg/mL
same,Minimum Inhibitory Concentration (MIC),[1]; 10% OligoG,2 µg/mL
same,Minimum Inhibitory Concentration (MIC),[2]; 0% OligoG,8 µg/mL
same,Minimum Inhibitory Concentration (MIC),[2]; 2% OligoG,4 µg/mL
same,Minimum Inhibitory Concentration (MIC),[2]; 6% OligoG,2 µg/mL
same,Minimum Inhibitory Concentration (MIC),[2]; 10% OligoG,0.5 µg/mL
same,Minimum Inhibitory Concentration (MIC),[3]; 0% OligoG,8 µg/mL
same,Minimum Inhibitory Concentration (MIC),[3]; 2% OligoG,8 µg/mL
same,Minimum Inhibitory Concentration (MIC),[3]; 6% OligoG,4 µg/mL
same,Minimum Inhibitory Concentration (MIC),[3]; 10% OligoG,2 µg/mL
same,Minimum Inhibitory Concentration (MIC),"[4]; MH, 0% OligoG, 96 hours",4 µg/mL
same,Minimum Inhibitory Concentration (MIC),"[4]; MH, 2% OligoG, 96 hours",1 µg/mL
same,Minimum Inhibitory Concentration (MIC),"[4]; RPMI 2% GLU, 0% OligoG, 72 hours",8 µg/mL
same,Minimum Inhibitory Concentration (MIC),"[4]; RPMI 2% GLU, 0% OligoG, 96 hours",8 µg/mL
same,Minimum Inhibitory Concentration (MIC),"[4]; RPMI 2% GLU, 2% OligoG, 72 hours",8 µg/mL
same,Minimum Inhibitory Concentration (MIC),"[4]; RPMI 2% GLU, 2% OligoG, 96 hours",8 µg/mL
same,Minimum Inhibitory Concentration (MIC),"[4]; RPMI 2% GLU, 6% OligoG, 72 hours",4 µg/mL
same,Minimum Inhibitory Concentration (MIC),"[4]; RPMI 2% GLU, 6% OligoG, 96 hours",8 µg/mL
same,Minimum Inhibitory Concentration (MIC),"[4]; Sabouraud, 0% OligoG, 72 hours",2 µg/mL
same,Minimum Inhibitory Concentration (MIC),"[4]; Sabouraud, 0% OligoG, 96 hours",2 µg/mL
same,Minimum Inhibitory Concentration (MIC),"[4]; Sabouraud, 2% OligoG, 72 hours",0.5 µg/mL
same,Minimum Inhibitory Concentration (MIC),"[4]; Sabouraud, 2% OligoG, 96 hours",0.5 µg/mL
same,Minimum Inhibitory Concentration (MIC),"[4]; Sabouraud, 6% OligoG, 72 hours",0.25 µg/mL
same,Minimum Inhibitory Concentration (MIC),"[4]; Sabouraud, 6% OligoG, 96 hours",0.25 µg/mL
same,Minimum Inhibitory Concentration (MIC),"[4]; YM, 0% OligoG, 72 hours",8 µg/mL
same,Minimum Inhibitory Concentration (MIC),"[4]; YM, 0% OligoG, 96 hours",16 µg/mL
same,Minimum Inhibitory Concentration (MIC),"[4]; YM, 2% OligoG, 72 hours",4 µg/mL
same,Minimum Inhibitory Concentration (MIC),"[4]; YM, 2% OligoG, 96 hours",8 µg/mL
same,effect on MIC when OligoG is added to the medium,"[4]; media: RPMI with 2% glucose, MH, Sabouraud, YM",reduction in MIC in all media tested
